pIC50: −log10 of the molar value. “And” between values parts separate entries of the source, which are not always exact repeats. Equal values may be shown once. Bounds are passed on as bounds.

The term viability, T/C denotes the ratio of treated to control. Usually pIC50 stands for −log10 of the IC50, conventionally taken in molar units.

For the assay, the system named is 519858-162-T-J1-PDC complex spheroid viability. The assay can be described thus: Anticancer human tumor 519858-162-T-J1-PDC patient-derived colon adenocarcinoma cell line growth inhibition [GQUAD]. The conditions noted are these: for viability, T/C: stronger effect = lower value. The text has this:
DNA G-quadruplex Stabilizer Agents in Combinations in Complex Spheroids
A high-throughput screen of multi-cell type tumor spheroids was designed to identify active combinations of DNA G-quadruplex stabilizer agents and targeted small molecules. Complex spheroids include a stromal component modeled by human endothelial cells (HUVEC) and fibroblasts modeled by human mesenchymal stem cells (MSCs). The concentration ranges selected for each drug and investigational agent were based upon clinically achievable concentrations if the clinical Cmax of the agent was known.
Compounds. The drugs and investigational agents: pidnarulex (CX-5461; NSC782164), APTO-253 (NSC789042), BRACO-19 (NSC847499), peposertib (NSC802822), ceralasertib (NSC780249), elimusertib (NSC800525), camonsertib (NSC841442), AZD-1390 (NSC803789), olaparib (NSC753686), talazoparib (NSC767125), ART-558 (NSC835418), sotorasib (NSC818433), MRTX-1133 (NSC836407), SN-38 (NSC673596), topotecan (NSC609699), etoposide (NSC141540), doxorubicin (NSC123127), gemcitabine (NSC613327), 5-fluorouracil (NSC19893), paclitaxel (NSC125973), vemurafenib (NSC761431), panobinostat (NSC761190), R-306465 (JNJ-16241199; NSC773264), adavosertib (NSC754352), TP-3654 (NSC805149), carboplatin (NSC241240), KSQ-4279 (NSC840948), and staurosporine (NSC755774) were obtained from the National Cancer Institute (NCI) Developmental Therapeutics Program Chemical Repository (34). The FDA-approved anticancer drug set is available from the NCI Developmental Therapeutics Program. […] The stock solutions were prepared in dimethyl sulfoxide (DMSO, Sigma-Aldrich, St. Louis, MO, cat. D2650) at 800-fold the tested concentration and stored at -70 degrees C prior to their use. All drugs and investigational agents were tested over a range starting from a high concentration at or near the clinical Cmax and decreasing in half-log increments. If the clinical Cmax for an agent had not been determined, the highest concentration tested was 10 microM.
2.3 Cell Culture. All cells were maintained in an incubator at 37 degrees C and 5% CO2 with 95% humidity. The PDC lines were cultured according to standard operating procedures established by the NCI PDMR. All PDCs were thawed and cultured in Matrigel-coated flasks prepared with a working solution of 1X Ham's F-12 nutrient mix, without supplementation (Invitrogen, cat. 11765054), 100 U/mL penicillin-streptomycin (Invitrogen, cat. 15140122), and 2.5% Matrigel (Corning Inc., cat. 354248) for the first three passages. The 857933-349-R-J2-PDC line was cultured in 6C/Colon 1B media, which includes advanced DMEM/F-12 (Thermo Fisher Scientific, cat. 12634028), 10 mM HEPES (Thermo Fisher Scientific, cat. 15630080), 1X GlutaMAX supplement (Thermo Fisher Scientific, cat. 35050061), 0.1 mg/mL primocin (InvivoGen, cat. ant-pm-2), 10% defined fetal bovine serum, heat inactivated (HyClone Laboratories Inc., cat. SH30070.03HI), 50% L-WRN conditioned media (ATCC, cat. CRL-3276), 1.25 mM N-Acetyl-L-cysteine (Sigma-Aldrich, cat. A9165), 10 mM nicotinamide (Sigma-Aldrich, cat. N0636), 1X B-27 supplement (Thermo Fisher Scientific, cat. 17504044), 1X N-2 supplement (Thermo Fisher Scientific, cat. 17502048), 10 microM Y-27632 dihydrochloride (Tocris Bioscience, cat. 1254), and 50 ng/mL human EGF recombinant protein (Thermo Fisher Scientific, cat. PHG0311). The 485176-168-R4-J1-PDC line was cultured in Panc media, which includes all 6C/Colon 1B media components plus 100 ng/mL human FGF-10 (Thermo Fisher Scientific, cat. 100-26), 500 nM SB-431542 (Selleckchem, cat. S1067), and gastrin (Tocris, cat. 3006).
[…]
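Further: spheroids exposed to compounds for 7 days.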

With `CN(C)c1ccc(Nc2c3ccc(NC(=O)CCN4CCCC4)cc3nc3cc(NC(=O)CCN4CCCC4)ccc23)cc1`, the viability, T/C (compound 0.0316 µM) is 85.1% [middle of 7 runs] and the viability, T/C (compound 10 µM) was 67.7% [middle of 7 runs]. Moreover, the pIC50 (compound alone, run of 02/26/2024) is below 5.00.

Regarding `COc1cc(C2c3cc4c(cc3C(OC3OC5COC(C)OC5C(O)C3O)C3COC(=O)C23)OCO4)cc(OC)c1O` (stereo not drawn), the viability, T/C is 165% and 107% and 86% (compound 0.0316 µM); 90.6% and 89.7% and 81.6% (compound 0.1 µM); 82.8% and 98% and 61.3% (compound 0.316 µM); 123% and 112% and 70.1% (compound 1 µM); 75% and 96.2% and 89.7% (compound 3.16 µM); 80.6% and 72.3% and 83.6% (compound 10 µM). In addition, the pIC50 (curve of compound) was below 5.00.

Turning to `COc1ccc([C@@H](O)c2cc(-c3ncnc4cc(N5CCOCC5)ccc34)c(F)cc2Cl)nn1`, the viability, T/C runs as follows: (compound 0.0316 µM) 103% and 120% and 90.1%; (compound 0.1 µM) 49.1% and 113% and 99.8%; (compound 0.316 µM) 76% and 95.2% and 69%; (compound 1 µM) 94% and 100% and 121%; (compound 3.16 µM) 82.1% and 102% and 73.5%; (compound 10 µM) 66.8% and 87.3% and 67.6%. For the same compound, for the setting “curve of compound”, the pIC50 was below 5.00.

On to `COc1cccc2c1C(=O)c1c(O)c3c(c(O)c1C2=O)CC(O)(C(=O)CO)CC3OC1CC(N)C(O)C(C)O1` (stereo not drawn), for which the viability, T/C reads like this: (compound 0.0316 µM) 72.4% and 79.2% and 88.8%; (compound 0.1 µM) 87.7% and 101% and 80.3%; (compound 0.316 µM) 96.6% and 91.6% and 71.9%; (compound 1 µM) 104% and 73.1% and 83.7%; (compound 3.16 µM) 68.2% and 95.1% and 53.9%; (compound 10 µM) 82.8% and 70.4% and 46.2%. Moreover, the pIC50 (curve of compound) is < 5.00 and 5.25.

Take `Cc1[nH]c2ccccc2c1CCNCc1ccc(/C=C/C(=O)NO)cc1`: the viability, T/C by setting is: (compound 0.000999 µM) 94.4%; (compound 0.00316 µM) 108%; (compound 0.00999 µM) 74.3%; (compound 0.0316 µM) 107%; (compound 0.0999 µM) 75.5%; (compound 0.316 µM) 50.6%. The pIC50 (curve of compound) is below 6.50.

`Cc1cccc(N(C)C(=O)C2C(O)CCN2c2nc(C)cc(C(F)(F)F)c2C#N)c1` (stereo not drawn): the viability, T/C by setting is: (compound 0.0316 µM) 110% and 112%; (compound 0.1 µM) 88.1% and 75.7%; (compound 0.316 µM) 95.8% and 74.5%; (compound 1 µM) 111% and 116%; (compound 3.16 µM) 106% and 101%; (compound 10 µM) 93.9% and 80.4%. For the same compound, the pIC50 (curve of compound) is below 5.00.

On to `Cn1ncnc1[C@H]1c2n[nH]c(=O)c3cc(F)cc(c23)N[C@@H]1c1ccc(F)cc1`, for which the viability, T/C (compound 0.000999 µM) is 83.7% and 86.3%; the viability, T/C (compound 0.00316 µM) is 82.9% and 98.9%; the viability, T/C (compound 0.00999 µM) was 105% and 58.1%; the viability, T/C (compound 0.0316 µM) is 92.4% and 96.9%; the viability, T/C (compound 0.0999 µM) is 119% and 84.3%; the viability, T/C (compound 0.316 µM) is 116% and 59.9%. Further, the pIC50 (curve of compound) is below 6.50.

For `Nc1ccn(C2OC(CO)C(O)C2(F)F)c(=O)n1` (stereo not drawn), the viability, T/C by setting is: (compound 0.0316 µM) 78.1%; (compound 0.1 µM) 91.4%; (compound 0.316 µM) 92.2%; (compound 1 µM) 94.6%; (compound 3.16 µM) 96.3%; (compound 10 µM) 79%. Further, under “curve of compound”, the pIC50 was below 5.00.

Turning to `O=C(NO)c1cnc(N2CCN(S(=O)(=O)c3ccc4ccccc4c3)CC2)nc1`, the viability, T/C was 97.8% and 112% (compound 0.0316 µM); 76.5% and 58.8% (compound 0.1 µM); 25.8% and 37.5% (compound 0.316 µM); 9.47% and 14.6% (compound 1 µM); 0.68% and 0.35% (compound 3.16 µM); 0.51% and 0.58% (compound 10 µM). For the setting “curve of compound”, the pIC50 was 6.74 and 6.79.

As for `O=C(c1cc(Cc2n[nH]c(=O)c3ccccc23)ccc1F)N1CCN(C(=O)C2CC2)CC1`, the viability, T/C is 86.5% and 87.2% (compound 0.0316 µM); 88.4% and 82.1% (compound 0.1 µM); 115% and 95.4% (compound 0.316 µM); 102% and 79.3% (compound 1 µM); 86.3% and 93% (compound 3.16 µM); 103% and 69.9% (compound 10 µM). For the same compound, where the note is “curve of compound”, the pIC50 was below 5.00.

Take `O=c1[nH]cc(F)c(=O)[nH]1`: the viability, T/C was 91.9% (compound 0.0316 µM); 115% (compound 0.1 µM); 95.7% (compound 0.316 µM); 107% (compound 1 µM); 77% (compound 3.16 µM); 80.2% (compound 10 µM). Moreover, the pIC50 (curve of compound) is below 5.00.

(Values after PubChem BioAssay AID2060507 (Molecular Pharmacology Branch, DTP, NCI, 2025).)
